Holding throughout (type): physicochemical
Series [1] can be described thus: Color tone of the dye. Particulars: Tables 1-9.
A short description of series [2]: Visible absorption spectrum (λmax, ε). The following applies: in chloroform; for ε: at λ max, in M-1 cm-1 (unit assumed).
A short description of series [3]: Solubility in toluene and methyl ethyl ketone, three-point scale. The source says:
In these tables, the solubility is rated on the three-point scale, wherein Δ stands for a solubility of less than 1% by weight, .largecircle. for a solubility in the approximate range of 1 to 3% by weight, and .circleincircle. for a solubility of not less than 3% by weight.

Regarding `CC(C)(C)Sc1c(F)c2c(c(F)c1SC(C)(C)C)C(=O)c1c(O)ccc(O)c1C2=O` [(305)], the Color tone entry in series [1] is reported as “Orange”. In series [2], this compound gave a λ max of 506 nm and a ε of 15300. For the same compound, in series [3], the “Solubility in methyl ethyl ketone” value is recorded as “.circleincircle. (a solubility of not less than 3% by weight)” and the Solubility in toluene result is on record as “.circleincircle. (a solubility of not less than 3% by weight)”.

As for `O=C1c2c(O)ccc(O)c2C(=O)c2c(Nc3ccccc3)c(Sc3ccccc3)c(Sc3ccccc3)c(Nc3ccccc3)c21` [(297)], the Color tone entry in series [1] is recorded as “Cyan”. For the same compound, in series [2], the λ max is listed as 692 nm and the ε was 15900. For the same compound, in series [3], the “Solubility in methyl ethyl ketone” value is “.largecircle. (a solubility in the approximate range of 1 to 3% by weight)” and the Solubility in toluene entry is reported as “.largecircle. (a solubility in the approximate range of 1 to 3% by weight)”.

Regarding `CCCCSc1c(SCCCC)c(SCCCC)c2c(c1SCCCC)C(=O)c1c(O)ccc(O)c1C2=O` [(308)], the Color tone entry in series [1] is listed as “Magenta”. Further, in series [2], the λ max is 530 nm and the ε came to 11100. Also, in series [3], the “Solubility in methyl ethyl ketone” value was “.largecircle. (a solubility in the approximate range of 1 to 3% by weight)” and the Solubility in toluene entry is given as “.circleincircle. (a solubility of not less than 3% by weight)”.

In the case of `N#Cc1c(F)c(F)c(Sc2c(F)c3c(c(F)c2Sc2c(F)c(F)c(C#N)c(F)c2F)C(=O)c2c(O)ccc(O)c2C3=O)c(F)c1F` [(300)], the Color tone result in series [1] is given as “Cinnabar”. Moreover, in series [2], the λ max stood at 521 nm and the ε is given as 13200. Further, in series [3], the “Solubility in methyl ethyl ketone” value was “Δ (a solubility of less than 1% by weight)” and the Solubility in toluene entry is “Δ (a solubility of less than 1% by weight)”.

Turning to `CC(C)(C)c1ccc(Nc2c(F)c3c(c(F)c2Nc2ccc(C(C)(C)C)cc2)C(=O)c2c(O)ccc(O)c2C3=O)cc1` [(130)], in series [1], the Color tone result is listed as “Cyan”. In series [2], the λ max worked out at 660 nm and the ε is given as 26700. Moreover, in series [3], the “Solubility in methyl ethyl ketone” value was “.largecircle. (a solubility in the approximate range of 1 to 3% by weight)” and the Solubility in toluene result was “.largecircle. (a solubility in the approximate range of 1 to 3% by weight)”.

For `CCc1cccc(CC)c1Nc1c(F)c(F)c2c(c1F)C(=O)c1c(O)ccc(O)c1C2=O` [(18)], the Color tone entry in series [1] is listed as “Magenta”. In series [2], this compound gave a λ max of 528 nm and a ε of 14200. Also, in series [3], the “Solubility in methyl ethyl ketone” value is “.largecircle. (a solubility in the approximate range of 1 to 3% by weight)” and the Solubility in toluene entry was “.circleincircle. (a solubility of not less than 3% by weight)”.

Consider `CCCCNc1c(F)c2c(c(F)c1Nc1ccccc1)C(=O)c1c(O)ccc(O)c1C2=O` [(229)], for which, in series [1], the Color tone entry is “Cyan”. In series [2], this compound came in with a λ max of 666 nm and a ε of 15300. For the same compound, in series [3], the “Solubility in methyl ethyl ketone” value is recorded as “.largecircle. (a solubility in the approximate range of 1 to 3% by weight)” and the Solubility in toluene entry is given as “.largecircle. (a solubility in the approximate range of 1 to 3% by weight)”.

Take `CCCCCCCCOc1c(F)c2c(c(F)c1Nc1cccc(C(=O)OCC)c1)C(=O)c1c(O)ccc(O)c1C2=O` [(34)]: the Color tone result in series [1] was “Magenta”. In series [2], this compound displayed a λ max of 531 nm and a ε of 12400. Further, in series [3], the “Solubility in methyl ethyl ketone” value is reported as “.circleincircle. (a solubility of not less than 3% by weight)” and the Solubility in toluene result was “.circleincircle. (a solubility of not less than 3% by weight)”.

For `CCCCCCCCOC(=O)c1cccc(Nc2c(F)c(F)c3c(c2F)C(=O)c2c(O)ccc(O)c2C3=O)c1` [(8)], in series [1], the Color tone result was “Magenta”. For the same compound, in series [2], the λ max worked out at 526 nm and the ε is recorded as 17600. For the same compound, in series [3], the “Solubility in methyl ethyl ketone” value is “.largecircle. (a solubility in the approximate range of 1 to 3% by weight)” and the Solubility in toluene entry is recorded as “.largecircle. (a solubility in the approximate range of 1 to 3% by weight)”.

Turning to `N#Cc1ccc(Nc2c(F)c3c(c(F)c2Nc2ccc(C#N)cc2)C(=O)c2c(O)ccc(O)c2C3=O)cc1` [(126)], the Color tone entry in series [1] is “Blue”. In series [2], this compound yielded a λ max of 605 nm and a ε of 16600. Further, in series [3], the “Solubility in methyl ethyl ketone” value is “Δ (a solubility of less than 1% by weight)” and the Solubility in toluene entry was “Δ (a solubility of less than 1% by weight)”.

Consider `O=C1c2c(O)ccc(O)c2C(=O)c2c(F)c(Sc3ccc(O)cc3)c(Sc3ccc(O)cc3)c(F)c21` [(301)], for which, in series [1], the Color tone result is recorded as “Cinnabar”. In series [2], the λ max is on record as 514 nm and the ε is reported as 12900. For the same compound, in series [3], the “Solubility in methyl ethyl ketone” value was “.largecircle. (a solubility in the approximate range of 1 to 3% by weight)” and the Solubility in toluene result is given as “.largecircle. (a solubility in the approximate range of 1 to 3% by weight)”.

As to `O=C1c2c(O)ccc(O)c2C(=O)c2c(F)c(NC3CCCCC3)c(F)c(F)c21` [(119)], in series [1], the Color tone result is given as “Magenta”. For the same compound, in series [2], the λ max is 536 nm and the ε was 24500. Also, in series [3], the “Solubility in methyl ethyl ketone” value was “.largecircle. (a solubility in the approximate range of 1 to 3% by weight)” and the Solubility in toluene result is “.largecircle. (a solubility in the approximate range of 1 to 3% by weight)”.

Take `COc1ccc(Nc2c(F)c3c(c(F)c2Nc2ccc(OC)cc2)C(=O)c2c(O)ccc(O)c2C3=O)cc1` [(132)]: in series [1], the Color tone result was “Cyan”. In series [2], this compound had a λ max of 649 nm and a ε of 13400. In series [3], the “Solubility in methyl ethyl ketone” value is listed as “.largecircle. (a solubility in the approximate range of 1 to 3% by weight)” and the Solubility in toluene entry was “.largecircle. (a solubility in the approximate range of 1 to 3% by weight)”.

`CCCCNc1c(F)c(F)c2c(c1F)C(=O)c1c(O)ccc(O)c1C2=O` [(117)]: the Color tone result in series [1] is listed as “Magenta”. Moreover, in series [2], the λ max came to 533 nm and the ε was 17900. In addition, in series [3], the “Solubility in methyl ethyl ketone” value was “.largecircle. (a solubility in the approximate range of 1 to 3% by weight)” and the Solubility in toluene result is given as “.largecircle. (a solubility in the approximate range of 1 to 3% by weight)”.

On to `COc1ccccc1Nc1c(F)c(F)c2c(c1F)C(=O)c1c(O)ccc(O)c1C2=O` [(14)], for which the Color tone entry in series [1] was “Purple”. In series [2], this compound gave a λ max of 557 nm and a ε of 15300. Moreover, in series [3], the “Solubility in methyl ethyl ketone” value is recorded as “.largecircle. (a solubility in the approximate range of 1 to 3% by weight)” and the Solubility in toluene entry is given as “.largecircle. (a solubility in the approximate range of 1 to 3% by weight)”.

In the case of `O=C1c2c(O)ccc(O)c2C(=O)c2c(F)c(Nc3ccccc3)c(F)c(F)c21` [(1)], the Color tone result in series [1] is given as “Magenta”. In series [2], this compound yielded a λ max of 533 nm and a ε of 14800. In series [3], the “Solubility in methyl ethyl ketone” value is reported as “Δ (a solubility of less than 1% by weight)” and the Solubility in toluene entry is “.largecircle. (a solubility in the approximate range of 1 to 3% by weight)”.

On to `CCCCNc1c(F)c2c(c(F)c1Nc1cccc(C(=O)OCC)c1)C(=O)c1c(O)ccc(O)c1C2=O` [(227)], for which the Color tone entry in series [1] was “Cyan”. In series [2], the λ max is 661 nm and the ε stood at 21000. Moreover, in series [3], the “Solubility in methyl ethyl ketone” value is recorded as “.largecircle. (a solubility in the approximate range of 1 to 3% by weight)” and the Solubility in toluene result is given as “.largecircle. (a solubility in the approximate range of 1 to 3% by weight)”.

On to `CCCCNc1c(F)c2c(c(F)c1Nc1ccc(OC)cc1)C(=O)c1c(O)ccc(O)c1C2=O` [(228)], for which the Color tone entry in series [1] is listed as “Cyan”. Also, in series [2], the λ max was 666 nm and the ε was found to be 22800. Moreover, in series [3], the “Solubility in methyl ethyl ketone” value is recorded as “.largecircle. (a solubility in the approximate range of 1 to 3% by weight)” and the Solubility in toluene entry is given as “.largecircle. (a solubility in the approximate range of 1 to 3% by weight)”.

Regarding `O=C1c2c(O)ccc(O)c2C(=O)c2c(F)c(Nc3c(Cl)cccc3Cl)c(Nc3c(Cl)cccc3Cl)c(F)c21` [(138)], the Color tone result in series [1] is reported as “Blue”. Also, in series [2], the λ max is on record as 630 nm and the ε came out at 22300. In series [3], the “Solubility in methyl ethyl ketone” value is “.largecircle. (a solubility in the approximate range of 1 to 3% by weight)” and the Solubility in toluene entry was “.largecircle. (a solubility in the approximate range of 1 to 3% by weight)”.

Consider `COc1ccc(Nc2c(F)c(F)c3c(c2F)C(=O)c2c(O)ccc(O)c2C3=O)cc1` [(15)], for which the Color tone entry in series [1] is on record as “Magenta”. In series [2], this compound registered a λ max of 542 nm and a ε of 10200. In addition, in series [3], the “Solubility in methyl ethyl ketone” value was “.largecircle. (a solubility in the approximate range of 1 to 3% by weight)” and the Solubility in toluene entry is listed as “.largecircle. (a solubility in the approximate range of 1 to 3% by weight)”.

In the case of `CCCCCCCCSc1c(F)c2c(c(F)c1SCCCCCCCC)C(=O)c1c(O)ccc(O)c1C2=O` [(304)], the Color tone entry in series [1] is recorded as “Orange”. In series [2], this compound registered a λ max of 504 nm and a ε of 14600. In addition, in series [3], the “Solubility in methyl ethyl ketone” value is recorded as “.largecircle. (a solubility in the approximate range of 1 to 3% by weight)” and the Solubility in toluene result is given as “.largecircle. (a solubility in the approximate range of 1 to 3% by weight)”.

Turning to `Nc1c(Sc2ccccc2)c(Sc2ccccc2)c(F)c2c1C(=O)c1c(O)ccc(O)c1C2=O` [(296)], the Color tone result in series [1] is on record as “Purple”. In series [2], this compound displayed a λ max of 542 nm and a ε of 12300. Further, in series [3], the “Solubility in methyl ethyl ketone” value is given as “.largecircle. (a solubility in the approximate range of 1 to 3% by weight)” and the Solubility in toluene entry is recorded as “.largecircle. (a solubility in the approximate range of 1 to 3% by weight)”.

The values are drawn from patent US5608091A, “Quinizarin compound, method for production thereof, and use therefor” (Nippon Shokubai Co., Ltd., priority 1993, dated 1997).
